The values below come from ChEMBL document CHEMBL4813939, “Diterpenoids and Diacetylenes from the Roots of Aralia cordata with Inhibitory Effects on Nitric Oxide Production” (J Nat Prod, 2021).

The test system of series [1] is RAW264.7. As to the kind of experiment: Anti-inflammatory activity in mouse RAW264.7 cells assessed as inhibition of LPS-induced NO production preincubated for 1 hr followed by LPS stimulation and measured after 24 hrs by Griess reagent based assay. In kind it is functional, cell-based.
The subject of series [2] is RAW264.7. Nature of the series: Cytotoxicity against mouse RAW264.7 cells assessed as reduction in cell viability by MTT assay. In kind it is cell-based.

Consider `C[C@@]12CCC[C@@](C)(C(=O)O)[C@H]1CC[C@]13C=C(CO)[C@H](CC[C@H]12)C3`, for which the IC50 in the series on RAW264.7 [1] was found to be 47.8 µM. For the same compound, the Activity entry in the series with RAW264.7 [2] is listed as “Non-Toxic”.

As for `C[C@@]12CCC[C@@](C)(C(=O)O)[C@H]1CC[C@]13C=C(C(=O)O)[C@H](CC[C@H]12)C3`, in the series with RAW264.7 [1], the IC50 worked out at 51.1 µM. For the same compound, the Activity result with RAW264.7 [2] is “Non-Toxic”. For `C=C[C@H](O)C#CC#C[C@@H](O)/C=C\CCCCCCC`, in that order: 5.4 µM and “Non-Toxic”. Turning to `CC(C)CC(=O)OC[C@@]1(O)C[C@@]23CC[C@H]4[C@@](C)(CCC[C@@]4(C)C(=O)O)[C@@H]2CC[C@@H]1C3`, the IC50 with RAW264.7 [1] stood at 28.2 µM. Moreover, in the series on RAW264.7 [2], the Activity entry was “Non-Toxic”.

For the compound `C=C[C@]1(C)C=C2CC[C@@H]3[C@](C)(CO)CCC[C@@]3(C)[C@@H]2CC1`, the IC50 in the series on RAW264.7 [1] is 10.2 µM. Moreover, the Activity entry with RAW264.7 [2] was “Non-Toxic”. For `CC(C)CC(=O)OC[C@H](O)[C@]1(C)C=C2CC[C@H]3[C@@](C)(CCC[C@]3(C)C(=O)O)[C@@H]2CC1`, in that order: 35.1 µM and “Non-Toxic”. Taken in the same sequence, the figures for `C=C/C(C)=C\C[C@@H]1C(=C)CC[C@@H]2[C@](C)(CO)CCC[C@@]12C` were 44 µM and “Non-Toxic”. With `C=C[C@@]1(C)CCC2=C(C1)C(=O)C[C@@H]1[C@](C)(C(=O)O)CCC[C@@]21C`, the IC50 in the series with RAW264.7 [1] came out at 14.9 µM. In the series with RAW264.7 [2], the Activity result is given as “Non-Toxic”.

Consider `C=C[C@@]1(C)CC=C2[C@@H](CC[C@@H]3[C@](C)(C(=O)O)CCC[C@@]23C)C1=O`, for which the IC50 in the series on RAW264.7 [1] came to 10 µM. In addition, the Activity result in the series with RAW264.7 [2] is reported as “Non-Toxic”. For `C=C[C@@]1(C)CCC2=C(CC[C@@H]3[C@](C)(C(=O)O)CCC[C@@]23C)C1=O`, in that order: 11.5 µM and “Non-Toxic”. For `C[C@@]12CCC[C@@](C)(C(=O)O)[C@H]1CCC1=C[C@@](C)([C@H]3CO3)CC[C@H]12`, in that order: 69.4 µM and “Non-Toxic”. Consider `C=C[C@]1(COC(=O)CC(C)C)C=C2CC[C@H]3[C@@](C)(CCC[C@@]3(C)C(=O)O)[C@@H]2CC1`, for which the IC50 in the series on RAW264.7 [1] is 10.6 µM. Besides, in the series on RAW264.7 [2], the Activity entry is given as “Non-Toxic”.

For `C=C[C@@]1(C)CC=C2C(CC[C@@H]3[C@](C)(CO)CCC[C@@]23C)C1` (stereo partly drawn), the IC50 with RAW264.7 [1] came out at 17.6 µM. For the same compound, the Activity entry with RAW264.7 [2] is recorded as “Non-Toxic”. Regarding `C=C[C@@]1(C)CCC2=C(C1=O)[C@H](O)C[C@@H]1[C@](C)(C(=O)O)CCC[C@@]21C`, the IC50 in the series on RAW264.7 [1] worked out at 21.7 µM. For the same compound, the Activity entry in the series on RAW264.7 [2] is listed as “Non-Toxic”. Taken in the same sequence, the figures for `C[C@@]12CCC[C@@](C)(C(=O)O)[C@H]1CC[C@]13C=C(C=O)[C@H](CC[C@H]12)C3` were 14.2 µM and “Non-Toxic”.

As for `C=C[C@]1(C)C=C2C(=O)C[C@H]3[C@@](C)(CCC[C@@]3(C)C(=O)O)[C@@H]2CC1`, in the series on RAW264.7 [1], the IC50 is 66.8 µM. In addition, in the series on RAW264.7 [2], the Activity entry is given as “Non-Toxic”. For `C=CCCCCC/C=C\[C@@H](C#CC#C[C@@H](O)CC)OC(C)=O`, in that order: 2.3 µM and “Non-Toxic”. With `C=CCCCCC/C=C\[C@H](O)C#CC#CC(CC)OC(=O)/C=C/c1ccc(O)cc1` (stereo partly drawn), in the series on RAW264.7 [1], the IC50 is 1.1 µM. In addition, in the series on RAW264.7 [2], the Activity entry is “Non-Toxic”. Taken in the same sequence, the figures for `C=C1C[C@@]23CC[C@@H]4[C@](C)(CO)CCC[C@@]4(C)[C@@H]2CC[C@@H]1C3` were 5.4 µM and “Non-Toxic”. Taken in the same sequence, the figures for `C=C1[C@@H]2CC[C@H]3[C@]4(C)CCC[C@@](C)(C(=O)O)[C@H]4CC[C@]3(C2)[C@H]1O` were 25.4 µM and “Non-Toxic”.

As for `C=CCCCCC/C=C\[C@H](O)C#CC#C[C@@H](O)CC` [DENDROARBOREOL A], the IC50 with RAW264.7 [1] is 40.5 µM. In the series with RAW264.7 [2], the Activity entry is “Non-Toxic”. Turning to `N=C(N)NN` [PIMAGEDINE], the IC50 with RAW264.7 [1] is 18.7 µM.
